Assay results taken from BindingDB's records for doi:10.1016/s0960-894x(99)00595-8 (Banyu Tsukuba Research Institute In Collaboration With …, 2000).

These compounds were tested against DNA topoisomerase 2-alpha (Homo sapiens) (UniProt P11388) (assay: In vitro inhibition of Topoisomerase II-mediated DNA cleavage using supercoiled pBR322 plasmid DNA.).
Sequence of DNA topoisomerase 2-alpha (Homo sapiens) (P11388 whole entry, looked up): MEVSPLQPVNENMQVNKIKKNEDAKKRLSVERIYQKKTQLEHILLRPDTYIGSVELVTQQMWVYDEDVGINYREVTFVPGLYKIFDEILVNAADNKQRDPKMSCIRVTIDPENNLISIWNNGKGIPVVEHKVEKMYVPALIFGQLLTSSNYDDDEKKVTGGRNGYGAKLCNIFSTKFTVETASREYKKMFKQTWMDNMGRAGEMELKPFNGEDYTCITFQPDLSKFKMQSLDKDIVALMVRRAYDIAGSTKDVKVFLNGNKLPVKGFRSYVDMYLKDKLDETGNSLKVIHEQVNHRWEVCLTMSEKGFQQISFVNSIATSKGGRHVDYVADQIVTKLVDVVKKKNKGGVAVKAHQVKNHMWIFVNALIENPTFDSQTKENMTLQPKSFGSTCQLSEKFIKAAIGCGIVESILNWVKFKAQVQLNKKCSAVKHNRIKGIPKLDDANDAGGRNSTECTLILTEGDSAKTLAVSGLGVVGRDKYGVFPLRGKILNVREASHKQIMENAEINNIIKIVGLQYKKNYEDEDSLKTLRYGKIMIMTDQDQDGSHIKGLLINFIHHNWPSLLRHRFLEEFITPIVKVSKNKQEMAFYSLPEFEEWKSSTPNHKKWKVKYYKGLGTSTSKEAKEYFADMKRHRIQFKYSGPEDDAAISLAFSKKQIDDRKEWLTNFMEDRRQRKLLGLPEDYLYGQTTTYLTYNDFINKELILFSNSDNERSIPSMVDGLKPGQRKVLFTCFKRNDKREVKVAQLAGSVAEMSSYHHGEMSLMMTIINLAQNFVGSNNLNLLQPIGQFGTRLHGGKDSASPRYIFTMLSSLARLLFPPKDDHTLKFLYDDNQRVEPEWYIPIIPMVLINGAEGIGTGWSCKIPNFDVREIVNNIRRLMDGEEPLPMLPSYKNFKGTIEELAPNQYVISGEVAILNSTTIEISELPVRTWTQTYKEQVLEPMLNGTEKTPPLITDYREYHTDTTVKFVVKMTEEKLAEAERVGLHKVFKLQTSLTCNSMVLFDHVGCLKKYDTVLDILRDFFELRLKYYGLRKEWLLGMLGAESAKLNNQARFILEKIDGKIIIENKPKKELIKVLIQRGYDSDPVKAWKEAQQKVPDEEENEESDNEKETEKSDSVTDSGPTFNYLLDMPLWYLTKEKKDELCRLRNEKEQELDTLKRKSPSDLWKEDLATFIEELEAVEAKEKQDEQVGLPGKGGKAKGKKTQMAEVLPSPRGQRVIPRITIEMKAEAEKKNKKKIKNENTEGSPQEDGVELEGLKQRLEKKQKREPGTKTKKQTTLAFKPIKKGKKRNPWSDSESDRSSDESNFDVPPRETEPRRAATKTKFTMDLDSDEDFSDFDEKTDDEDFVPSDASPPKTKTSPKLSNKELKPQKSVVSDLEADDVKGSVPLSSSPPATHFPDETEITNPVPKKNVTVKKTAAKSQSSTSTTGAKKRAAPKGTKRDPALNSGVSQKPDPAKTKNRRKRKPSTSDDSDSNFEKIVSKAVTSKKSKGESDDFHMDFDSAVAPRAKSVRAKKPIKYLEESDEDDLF

| Structure (SMILES) | EC50 [µM] |
| --- | --- |
| O=C1c2c(c3c4cccc(O)c4n(C4OC(CO)C(O)C(O)C4O)c3c3[nH]c4ccc(O)cc4c23)C(=O)N1NC(CO)CO (stereo not drawn) [1,9-dihydroxy-6-(2-hydroxy-1-hydroxymethylethylamino)-13-(3,4,5-trihydroxy-6-hydroxymethyltetrahydro-2H-2-pyranyl)-6,7,12,13-tetrahydro-5H-indolo[2,3-a]pyrrolo[3,4-c]carbazole-5,7-dione] | > 50 |
| O=C1c2c(c3c4ccccc4n(C4OC(CO)C(O)C(O)C4O)c3c3[nH]c4cccc(O)c4c23)C(=O)N1NC(CO)CO (stereo not drawn) [4-hydroxy-6-(2-hydroxy-1-hydroxymethylethylamino)-12-(3,4,5-trihydroxy-6-hydroxymethyltetrahydro-2H-2-pyranyl)-6,7,12,13-tetrahydro-5H-indolo[2,3-a]pyrrolo[3,4-c]carbazole-5,7-dione] | > 50 |
| O=C1c2c(c3c4cc(O)ccc4n(C4OC(CO)C(O)C(O)C4O)c3c3[nH]c4ccc(O)cc4c23)C(=O)N1NC(CO)CO (stereo not drawn) [3,9-dihydroxy-6-(2-hydroxy-1-hydroxymethylethylamino)-12-(3,4,5-trihydroxy-6-hydroxymethyltetrahydro-2H-2-pyranyl)-6,7,12,13-tetrahydro-5H-indolo[2,3-a]pyrrolo[3,4-c]carbazole-5,7-dione] | > 50 |
| O=C1c2c(c3c4ccc(O)cc4n(C4OC(CO)C(O)C(O)C4O)c3c3[nH]c4cc(O)ccc4c23)C(=O)N1NC(CO)CO (stereo not drawn) [2,10-dihydroxy-6-(2-hydroxy-1-hydroxymethylethylamino)-12-(3,4,5-trihydroxy-6-hydroxymethyltetrahydro-2H-2-pyranyl)-6,7,12,13-tetrahydro-5H-indolo[2,3-a]pyrrolo[3,4-c]carbazole-5,7-dione] | > 50 |
| O=C1c2c(c3c4ccc(O)cc4n(C4OC(CO)C(O)C(O)C4O)c3c3[nH]c4ccccc4c23)C(=O)N1NC(CO)CO (stereo not drawn) [2-hydroxy-6-(2-hydroxy-1-hydroxymethylethylamino)-13-(3,4,5-trihydroxy-6-hydroxymethyltetrahydro-2H-2-pyranyl)-6,7,12,13-tetrahydro-5H-indolo[2,3-a]pyrrolo[3,4-c]carbazole-5,7-dione] | > 50 |
| O=C1c2c(c3c4ccc(O)cc4n(C4OC(CO)C(O)C(O)C4O)c3c3[nH]c4c(O)cccc4c23)C(=O)N1NC(CO)CO (stereo not drawn) [1,10-dihydroxy-6-(2-hydroxy-1-hydroxymethylethylamino)-12-(3,4,5-trihydroxy-6-hydroxymethyltetrahydro-2H-2-pyranyl)-6,7,12,13-tetrahydro-5H-indolo[2,3-a]pyrrolo[3,4-c]carbazole-5,7-dione] | > 50 |
| O=C1c2c(c3c4cc(O)cc(O)c4n(C4OC(CO)C(O)C(O)C4O)c3c3[nH]c4c(O)cc(O)cc4c23)C(=O)N1NC(CO)CO (stereo not drawn) [1,3,9,11-tetrahydroxy-6-(2-hydroxy-1-hydroxymethylethylamino)-12-(3,4,5-trihydroxy-6-hydroxymethyltetrahydro-2H-2-pyranyl)-6,7,12,13-tetrahydro-5H-indolo[2,3-a]pyrrolo[3,4-c]carbazole-5,7-dione] | > 50 |
| O=C1c2c(c3c4ccccc4n(C4OC(CO)C(O)C(O)C4O)c3c3[nH]c4ccc(O)cc4c23)C(=O)N1NC(CO)CO (stereo not drawn) [3-hydroxy-6-(2-hydroxy-1-hydroxymethylethylamino)-12-(3,4,5-trihydroxy-6-hydroxymethyltetrahydro-2H-2-pyranyl)-6,7,12,13-tetrahydro-5H-indolo[2,3-a]pyrrolo[3,4-c]carbazole-5,7-dione] | > 50 |
| O=C1c2c(c3c4ccc(O)cc4n(C4OC(CO)C(O)C(O)C4O)c3c3[nH]c4ccc(O)cc4c23)C(=O)N1NC(CO)CO (stereo not drawn) [2,9-dihydroxy-6-(2-hydroxy-1-hydroxymethylethylamino)-13-(3,4,5-trihydroxy-6-hydroxymethyltetrahydro-2H-2-pyranyl)-6,7,12,13-tetrahydro-5H-indolo[2,3-a]pyrrolo[3,4-c]carbazole-5,7-dione] | > 50 |
| O=C1c2c(c3c4ccc(O)cc4n(C4OC(CO)C(O)C(O)C4O)c3c3[nH]c4c(O)cc(O)cc4c23)C(=O)N1NC(CO)CO (stereo not drawn) [1,3,10-trihydroxy-6-(2-hydroxy-1-hydroxymethylethylamino)-12-(3,4,5-trihydroxy-6-hydroxymethyltetrahydro-2H-2-pyranyl)-6,7,12,13-tetrahydro-5H-indolo[2,3-a]pyrrolo[3,4-c]carbazole-5,7-dione] | > 50 |
| O=C1c2c(c3c4ccccc4n(C4OC(CO)C(O)C(O)C4O)c3c3[nH]c4cc(O)ccc4c23)C(=O)N1NC(CO)CO (stereo not drawn) [2-hydroxy-6-(2-hydroxy-1-hydroxymethylethylamino)-12-(3,4,5-trihydroxy-6-hydroxymethyltetrahydro-2H-2-pyranyl)-6,7,12,13-tetrahydro-5H-indolo[2,3-a]pyrrolo[3,4-c]carbazole-5,7-dione] | > 50 |

Continued, values first:

| EC50 [µM] | Structure (SMILES) |
| --- | --- |
| > 50 | O=C1c2c(c3c4cc(O)ccc4n(C4OC(CO)C(O)C(O)C4O)c3c3[nH]c4c(O)cccc4c23)C(=O)N1NC(CO)CO (stereo not drawn) [1,9-dihydroxy-6-(2-hydroxy-1-hydroxymethylethylamino)-12-(3,4,5-trihydroxy-6-hydroxymethyltetrahydro-2H-2-pyranyl)-6,7,12,13-tetrahydro-5H-indolo[2,3-a]pyrrolo[3,4-c]carbazole-5,7-dione] |
| > 50 | O=C1c2c(c3c4cc(O)ccc4n(C4OC(CO)C(O)C(O)C4O)c3c3[nH]c4cc(O)ccc4c23)C(=O)N1NC(CO)CO (stereo not drawn) [2,9-dihydroxy-6-(2-hydroxy-1-hydroxymethylethylamino)-12-(3,4,5-trihydroxy-6-hydroxymethyltetrahydro-2H-2-pyranyl)-6,7,12,13-tetrahydro-5H-indolo[2,3-a]pyrrolo[3,4-c]carbazole-5,7-dione] |
| > 50 | O=C1c2c(c3c4cccc(O)c4n(C4OC(CO)C(O)C(O)C4O)c3c3[nH]c4ccccc4c23)C(=O)N1NC(CO)CO (stereo not drawn) [1-hydroxy-6-(2-hydroxy-1-hydroxymethylethylamino)-13-(3,4,5-trihydroxy-6-hydroxymethyltetrahydro-2H-2-pyranyl)-6,7,12,13-tetrahydro-5H-indolo[2,3-a]pyrrolo[3,4-c]carbazole-5,7-dione] |
| > 50 | O=C1c2c(c3c4cccc(O)c4n(C4OC(CO)C(O)C(O)C4O)c3c3[nH]c4cc(O)ccc4c23)C(=O)N1NC(CO)CO (stereo not drawn) [1,10-dihydroxy-6-(2-hydroxy-1-hydroxymethylethylamino)-13-(3,4,5-trihydroxy-6-hydroxymethyltetrahydro-2H-2-pyranyl)-6,7,12,13-tetrahydro-5H-indolo[2,3-a]pyrrolo[3,4-c]carbazole-5,7-dione] |
| > 50 | O=C1c2c(c3c4ccccc4n(C4OC(CO)C(O)C(O)C4O)c3c3[nH]c4c(O)cccc4c23)C(=O)N1NC(CO)CO (stereo not drawn) [1-hydroxy-6-(2-hydroxy-1-hydroxymethylethylamino)-12-(3,4,5-trihydroxy-6-hydroxymethyltetrahydro-2H-2-pyranyl)-6,7,12,13-tetrahydro-5H-indolo[2,3-a]pyrrolo[3,4-c]carbazole-5,7-dione] |
| > 50 | O=C1c2c(c3c4cc(O)ccc4n(C4OC(CO)C(O)C(O)C4O)c3c3[nH]c4ccccc4c23)C(=O)N1NC(CO)CO (stereo not drawn) [3-hydroxy-6-(2-hydroxy-1-hydroxymethylethylamino)-13-(3,4,5-trihydroxy-6-hydroxymethyltetrahydro-2H-2-pyranyl)-6,7,12,13-tetrahydro-5H-indolo[2,3-a]pyrrolo[3,4-c]carbazole-5,7-dione] |
| > 50 | O=C1c2c(c3c4cccc(O)c4n(C4OC(CO)C(O)C(O)C4O)c3c3[nH]c4c(O)cccc4c23)C(=O)N1NC(CO)CO (stereo not drawn) [1,11-dihydroxy-6-(2-hydroxy-1-hydroxymethylethylamino)-12-(3,4,5-trihydroxy-6-hydroxymethyltetrahydro-2H-2-pyranyl)-6,7,12,13-tetrahydro-5H-indolo[2,3-a]pyrrolo[3,4-c]carbazole-5,7-dione] |
